Results taken from PMC9640990 (Frontiers in Pharmacology, 2022).
Read-outs that look alike come from different tables or passages of the source.

How the values were obtained:
[1] = Tissue distribution-based herb-drug interaction study in rats (CIP i.v., PCE i.g.); format: in vivo, Sprague-Dawley rats
[2] = molecular target: T1, hBCRP (Homo sapiens, UniProt Q9UNQ0); experiment: hBCRP-mediated efflux of lucifer yellow in hBCRP-MDCK cells; format: cell-based; details: for efflux of BCRP-mediated lucifer yellow: concentration range 0.3 to 30 µM; for inhibitory effect on BCRP activity: hBCRP-MDCK cells, co-incubation 0.3 to 30 µM
T1 construct: host or cells: MDCK
T1 sequence (Q9UNQ0 1-655): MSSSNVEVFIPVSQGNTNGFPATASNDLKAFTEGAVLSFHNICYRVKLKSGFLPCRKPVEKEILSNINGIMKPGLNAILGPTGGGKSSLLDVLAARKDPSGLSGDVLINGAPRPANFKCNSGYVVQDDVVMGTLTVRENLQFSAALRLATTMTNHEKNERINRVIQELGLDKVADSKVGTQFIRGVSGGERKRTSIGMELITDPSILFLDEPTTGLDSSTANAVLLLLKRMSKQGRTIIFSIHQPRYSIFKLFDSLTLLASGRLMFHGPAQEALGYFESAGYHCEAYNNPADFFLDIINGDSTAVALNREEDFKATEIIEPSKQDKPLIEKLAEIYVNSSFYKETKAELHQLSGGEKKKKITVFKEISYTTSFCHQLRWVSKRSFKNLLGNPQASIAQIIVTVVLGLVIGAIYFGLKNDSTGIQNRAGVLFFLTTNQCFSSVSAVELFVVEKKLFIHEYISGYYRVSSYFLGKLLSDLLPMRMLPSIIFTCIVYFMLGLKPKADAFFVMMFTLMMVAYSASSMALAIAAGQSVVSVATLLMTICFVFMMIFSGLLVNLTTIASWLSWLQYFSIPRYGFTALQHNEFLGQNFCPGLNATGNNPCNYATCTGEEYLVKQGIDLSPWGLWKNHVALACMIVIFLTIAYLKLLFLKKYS
Description: (§1) Briefly, the hOAT1-MDCK, hOAT3-MDCK, and hOCT2-S2 cells were trypsinized and suspended in the culture medium to provide a density of 1.5 × 10^5 cells/ml. […] After cultivation for 7 days, cells were washed twice and equilibrated for 30 min at 37°C with the pre-warmed HBSS buffer. […] The content of DMSO was below 1% and constant in all inhibition experiments. All experiments were performed in triplicate. The cell lysate and 3.0 ml of aquasol-2 scintillation fluid were put into a scintillation flask. […] IC50 values were determined by employing GraphPad Prism 9.

[3] = molecular target: T2, hOAT1 (Homo sapiens, UniProt Q4U2R8); experiment: Inhibition of hOAT1-mediated uptake of 14C-PAH in hOAT1-MDCK cells; format: cell-based
T2 construct: host or cells: MDCK
T2 sequence (Q4U2R8 1-563): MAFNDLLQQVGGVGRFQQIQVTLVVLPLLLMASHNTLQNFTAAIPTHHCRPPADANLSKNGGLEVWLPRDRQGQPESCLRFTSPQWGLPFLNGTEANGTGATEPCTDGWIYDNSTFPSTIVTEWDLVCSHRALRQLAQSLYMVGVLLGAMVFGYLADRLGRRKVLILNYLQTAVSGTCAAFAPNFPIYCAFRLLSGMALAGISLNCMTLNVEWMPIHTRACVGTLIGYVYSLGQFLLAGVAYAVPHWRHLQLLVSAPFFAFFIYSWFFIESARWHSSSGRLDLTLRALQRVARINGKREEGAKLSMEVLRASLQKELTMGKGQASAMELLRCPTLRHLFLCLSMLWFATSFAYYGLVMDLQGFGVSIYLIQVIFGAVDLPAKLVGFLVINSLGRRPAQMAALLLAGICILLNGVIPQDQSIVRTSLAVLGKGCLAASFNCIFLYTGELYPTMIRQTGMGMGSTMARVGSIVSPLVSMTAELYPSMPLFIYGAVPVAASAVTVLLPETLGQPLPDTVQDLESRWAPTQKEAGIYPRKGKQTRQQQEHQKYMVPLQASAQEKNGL
Description: as §1

[4] = in vivo; details: male, Sprague-Dawley, rat, po, 0.72 g/kg; for Cmax: C max; for Vd/F: V z/F; for k el: k e; for half-life: t 1/2, plasma PK-marker; for Tmax: t max, median (range)
[5] = molecular target: hOAT3 (Homo sapiens, UniProt Q8TCC7); experiment: Inhibition of hOAT3-mediated uptake of 3H-ES in hOAT3-MDCK cells; format: cell-based
hOAT3, sequence (Q8TCC7 whole entry): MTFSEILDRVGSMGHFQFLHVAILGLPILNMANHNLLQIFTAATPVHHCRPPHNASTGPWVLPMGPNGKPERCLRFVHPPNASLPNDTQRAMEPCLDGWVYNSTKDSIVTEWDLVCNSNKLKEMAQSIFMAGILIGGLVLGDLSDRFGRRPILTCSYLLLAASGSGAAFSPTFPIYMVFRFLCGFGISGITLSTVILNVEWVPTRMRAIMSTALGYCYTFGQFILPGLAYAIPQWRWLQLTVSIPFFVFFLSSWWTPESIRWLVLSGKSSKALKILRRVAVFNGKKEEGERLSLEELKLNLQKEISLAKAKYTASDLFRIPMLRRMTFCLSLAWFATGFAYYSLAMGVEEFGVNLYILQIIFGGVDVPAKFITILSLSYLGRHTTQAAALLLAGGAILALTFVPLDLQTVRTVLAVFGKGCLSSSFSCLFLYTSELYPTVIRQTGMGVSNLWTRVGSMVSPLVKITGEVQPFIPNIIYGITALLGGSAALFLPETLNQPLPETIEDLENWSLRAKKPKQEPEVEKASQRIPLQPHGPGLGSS
Description: Considering the relative exposure characteristics, GA and PCA were selected as PK-marker and Q-marker components of PCE in previous studies ([Ma et al., 2015]; [Ma et al., 2016]; [Li et al., 2021b]). In this study, we investigated the concentration-dependent inhibitions of GA and PCA on multiple transporters, including OAT1, OAT3, OCT2, MDR1, and BCRP. Stably expressing cell lines of hOAT1-MDCK, hOAT3-MDCK, hOCT2-S2, hMDR1-MDCK, hBCRP-MDCK, and their mock cells were obtained from Japan Fuji Biomedical Co., Ltd. The cells were maintained in DMEM (Sigma) supplemented with 10% FCS, 1% non-essential amino acids (Sigma), and 2% L-glutamine. The medium for the Transwell® plates (Corning Costar, Cambridge, MA, United States) was supplemented with 0.1% gentamicin. Membrane filters were placed in a 12 mm well with 1.5 and 0.5 ml of culture medium in the basolateral and apical compartments, respectively. Cells were cultured at 37°C in an atmosphere of 5% CO2. The inhibition experiments were adapted from previous methods with minor modifications ([Li et al., 2021a]; [2021b]).
Briefly, the hOAT1-MDCK, hOAT3-MDCK, and hOCT2-S2 cells were trypsinized and suspended in the culture medium to provide a density of 1.5 × 10^5 cells/ml. After incubating for 48 h, the cells were washed twice with preheated DPBS and then pre-incubated with DPBS for 10 min at 37°C. 500 µl of DPBS containing probe substrates was added to initiate the uptake in the presence or absence of GA, PCA or positive inhibitors. The hMDR1-MDCK and hBCRP-MDCK cells were suspended at a density of 4.0 × 10^5 cells/ml. After cultivation for 7 days, cells were washed twice and equilibrated for 30 min at 37°C with the pre-warmed HBSS buffer. […] The radioactive intensity of ^14C-PAH, ^3H-ES, and ^14C-TEA was measured using a Tri-Carb 2910TR scintillator (PerkinElmer, United States). Fluorescence was measured at 485 nm (excitation) and 546 nm (emission) for rhodamine 123, and 425 nm (excitation) and 528 nm (emission) for lucifer yellow. IC50 values were determined by employing GraphPad Prism 9.

[6] = plasma, plasma PK-marker, rats, intragastric PCE 0.72 g/kg + CIP […]
[7] = plasma, plasma PK-marker, rats, intragastric PCE 0.72 g/kg alone

O=C(O)c1ccc(O)c(O)c1 [PCA, protocatechuic acid]
order of both AUC 0-t and C max in tissues ([1]; CIP + PCE group): prostate > SVG > kidney > testis > plasma
order of both AUC 0-t and C max in tissues ([1]; PCE group): SVG > kidney > prostate > testis > spleen
change of K p by CIP ([1]; each tissue, p > 0.05): did not significantly alter
change of AUC 0-t by CIP ([1]; kidney, p < 0.05): decreased
change of C max by CIP ([1]; prostate, p < 0.05): significantly increased
efflux of BCRP-mediated lucifer yellow [2]: concentration-dependent increase
inhibitory effect on BCRP activity [2]: no inhibitory effect
IC50 ([3]; hOAT1-MDCK cells, 14C-PAH 5 µM): 29.7 µM
AUC(0-t) [4, 6]: 6.37 ± 1.18 ng·h/mL
AUC(0-t) [4, 7]: 6.72 ± 2.39 ng·h/mL
AUC(0-inf) [4, 6]: 7.04 ± 1.55 ng·h/mL
AUC(0-inf) [4, 7]: 7.32 ± 2.39 ng·h/mL
Cmax [4, 6]: 6.69 ± 1.87 ng/mL
Cmax [4, 7]: 5.08 ± 1.82 ng/mL
Vd/F [4, 6]: 6.87 ± 2.54 L
Vd/F [4, 7]: 6.5 ± 3.16 L
k el [4, 6]: 0.000306 s⁻¹
k el [4, 7]: 0.000308 s⁻¹
half-life ([4]; plasma, rats, intragastric PCE 0.72 g/kg + CIP […]): 45.6 ± 25.8 min
half-life ([4]; plasma, rats, intragastric PCE 0.72 g/kg alone): 40.8 ± 12.6 min
Tmax [4, 6]: 30 min
Tmax [4, 7]: 30 min
IC50 ([5]; hOAT3-MDCK cells, 3H-ES 0.05 µM, read-out: IC50, hOAT3): 152 µM

O=C(O)c1cc(O)c(O)c(O)c1 [GA, Gallic acid]
order of C max in tissues ([1]; CIP + PCE group (PK-marker)): SVG > prostate > kidney > lung > plasma
order of C max in tissues ([1]; PCE group): SVG > prostate > kidney > plasma > testis
order of AUC 0-t in tissues ([1]; intragastric PCE in the absence and presence of CIP): SVG > prostate > kidney > testis > plasma
change of C max by CIP ([1]; kidney and heart, p < 0.05): decreased
efflux of BCRP-mediated lucifer yellow [2]: concentration-dependent increase
inhibitory effect on BCRP activity [2]: no inhibitory effect
IC50 [3]: 8.01 µM
AUC(0-t) ([4]; in vivo): 465 ± 171 ng·h/mL
AUC(0-inf) ([4]; in vivo): 483 ± 169 ng·h/mL
Cmax ([4]; in vivo): 134 ± 36.4 ng/mL
Vd/F ([4]; in vivo): 8.93 ± 9.83 L
Tmax ([4]; in vivo, plasma PK-marker, rats, intragastric PCE 0.72 g/kg alone): 90 min
k el [4, 6]: 0.000122 s⁻¹
k el [4, 7]: 9.72e-05 s⁻¹
IC50 [5]: 62.3 µM
